How the values were obtained:
[1] = target: T1, TGR7 (Homo sapiens, UniProt Q8TDS7); test: Suppression of forskolin-increased intracellular cAMP level in TGR7-expressed CHO cells; assay type: cell-based; parameters: expressed in transfected cells; host or cells: CHO cells; conditions: 1 μM forskolin, ligand 1.0×10^−3 M-3.0×10^−7 M, compared to mock CHO cells (FIG. 6, FIG. 7)
Procedure: (§1) The TGR7- and rCB7T084-expressed CHO cells were washed with assay medium (HBSS (GibcoBRL) supplemented with 0.1% bovine serum albumin and 0.2 mM IBMX). Thereafter, the cells were incubated at 37° C. for 30 minutes under 5% CO2 conditions. β-Alanine (1.0×10^−3 M-3.0×10^−7 M) and L-carnosine (1.0×10^−3 M-3.0×10^−7 M) diluted with the assay medium in various concentrations were added and forskokin was then added thereto in 1 μM. The cells were incubated at 37° C. for 30 minutes under 5% CO2 conditions. The culture supernatant was discarded and the intracellular cAMP level was determined on a plate reader (ARVO multi-label counter, Wallac, Inc.), following the protocol of cAMP Screen Kit (Applied Biosystems, Inc.).

[2] = target: T2, rCB7T084 (Rattus norvegicus, UniProt Q7TN41, R55S); test: Suppression of forskolin-increased intracellular cAMP level in rCB7T084-expressed CHO cells; assay type: cell-based; conditions: 1 μM forskolin, ligand 1.0×10^−3 M-3.0×10^−7 M, compared to mock CHO cells (FIG. 6, FIG. 7)
T2 construct: expressed in transfected cells; host or cells: CHO cells
T2 sequence (Q7TN41 1-319 R55S): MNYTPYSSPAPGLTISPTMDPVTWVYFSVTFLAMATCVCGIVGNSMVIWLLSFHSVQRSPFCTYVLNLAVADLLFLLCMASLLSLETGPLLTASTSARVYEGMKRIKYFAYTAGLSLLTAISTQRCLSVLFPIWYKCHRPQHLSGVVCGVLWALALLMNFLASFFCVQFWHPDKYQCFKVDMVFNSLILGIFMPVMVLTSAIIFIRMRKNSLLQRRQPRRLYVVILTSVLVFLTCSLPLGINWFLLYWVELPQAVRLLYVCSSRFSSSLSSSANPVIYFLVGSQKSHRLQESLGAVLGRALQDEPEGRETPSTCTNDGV
Procedure: as §1

[3] = target: rat rCB7T084 (Rattus norvegicus, UniProt Q7TN41, R55S); conditions: β-alanine added in 10^−4 M to 10^−5 M; CHO-K1 cells expressing rat rCB7T084; FLIPR, Fluo-3AM (FIG. 2)
Procedure: (§2) The CHO-K1 cell line was cultured in HAM F-12 medium (Invitrogen) containing 10% fetal calf serum (Invitrogen), unless otherwise indicated. A day before transfection, 4.5×10^5 cells per 10 cm^2 were plated, followed by incubation in a CO2 incubator adjusted to a concentration of 5% CO2 at 37° C. for at least 15 hours. Using Lipofectamine reagent (Invitrogen), transfection was carried out by modifications of the method attached to the reagent. When a 6-well plate was used for the incubation, the following procedures were performed. First, 2 tubes each having a 1.5 ml volume were prepared and 100 μl each of Opti-MEM medium (Invitrogen) was dispensed in each tube. Next, 1 μg of the expression vector was charged in one tube and in another tube, 6 μl of Lipofectamine reagent was charged, which were mixed together. The mixture was settled for 20 minutes at room temperature. To the solution, 800 μl of Opti-MEM medium was added and the resulting solution mixture for transfection was added to the CHO-K1 cells, which had been previously washed with Opti-MEM medium. Then, the cells were incubated in a CO2 incubator for 6 hours. After the incubation, the cells were rinsed with PBS (Invitrogen), then scraped using 0.05% trypsin-EDTA solution (Invitrogen) and recovered by centrifugal operation. The cells obtained were counted and diluted to 5×10^4 cells per 200 μl of the medium. The dilution was dispensed onto a Black walled 96-well plate (Costar) in 200 μl each per well, followed by incubation overnight in a CO2 incubator. Various test samples were added to the CHO-K1 cells in which the receptor was transiently expressed by the transfection operation described above, whereby changes in the intracellular calcium ion level were determined using FLIPR (Molecular Device). In order to determine the changes in the intracellular calcium ion level on FLIPR, the cells were pre-teated by the following procedures. […] Following the pre-treatment above, changes in intracellular calcium level after addition of various test samples were measured on FLIPR.

[4] = test system: CHO-K1 cells into which the expression vector alone was introduced; conditions: control CHO-K1 cells, expression vector alone (no insert); FLIPR (FIG. 3)
Procedure: as §2

[5] = target: T1, TGR7; conditions: β-alanine added in 10^−4 M to 10^−5 M; CHO-K1 cells expressing human TGR7; FLIPR, Fluo-3AM (FIG. 1)
Procedure: as §2

T1 sequence (Q8TDS7 whole entry): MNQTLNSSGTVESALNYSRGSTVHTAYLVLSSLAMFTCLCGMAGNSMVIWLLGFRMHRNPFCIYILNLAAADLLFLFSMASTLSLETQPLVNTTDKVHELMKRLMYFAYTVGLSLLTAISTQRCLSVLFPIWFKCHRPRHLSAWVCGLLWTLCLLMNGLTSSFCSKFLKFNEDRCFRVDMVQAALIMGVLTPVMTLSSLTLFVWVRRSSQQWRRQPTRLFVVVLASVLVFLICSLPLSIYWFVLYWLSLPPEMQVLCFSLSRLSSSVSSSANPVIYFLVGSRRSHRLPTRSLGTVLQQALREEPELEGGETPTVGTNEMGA

| SMILES | decrease of the intracellular cAMP level increased by forskolin addition [1] | decrease of the intracellular cAMP level increased by forskolin addition [2] | response (increase in the intracellular calcium level) [3] | response (increase in the intracellular calcium level) [4] | response (increase in the intracellular calcium level) [5] |
| --- | --- | --- | --- | --- | --- |
| NCCC(=O)N[C@@H](Cc1cnc[nH]1)C(=O)O [L-carnosine] | dose-dependent and specific decrease | dose-dependent and specific decrease |  |  |  |
| NCCC(=O)O [β-alanine] | dose-dependent and specific decrease | dose-dependent and specific decrease | specifically responsive | such response was not observed | specifically responsive |
